Measurements taken from US20240158418A1 (C4 Therapeutics, Inc., priority 2021, published 2024).
Read-outs that look alike come from different tables or passages of the source.

What was measured:
pY1068 EGFR WT = target: T1, pY1068 EGFR WT (Homo sapiens, UniProt P00533); assay: Phospho-EGFR (pY1068) inhibition HTRF, A431; format: cell-based; settings: A431 (wild-type), 6 hours; read-out: pEGFR IC50
T1 construct: A431 (harboring EGFR wildtype) was purchased from ATCC; host or cells: A431
Description: (§1) NCI-H1975 (harboring EGFR heterozygous L858R-T790M mutations) and NCI-H3255 (harboring EGFR heterozygous L858R mutation) were purchased from ATCC and NCI, respectively. NCI-H1975+CS (harboring EGFR heterozygous L858R-T790M-C797S mutations) was generated using CRISPR technology to introduce the additional C797S mutation by Horizon Discovery. A431 (harboring EGFR wildtype) was purchased from ATCC. RPMI 1640 no-phenol red medium and fetal bovine serum (FBS) were purchased from Gibco (Grand Island, NY, USA). Cell culture flasks and 384-well microplates were acquired from VWR (Radnor, PA, USA). Phosphorylated (pY1068) EGFR and Total EGFR (using L858R-specific detection antibody and pan-EGFR antibody for EGFR mutant cell lines and EGFR wild-type cell lines, respectively) HTRF assay kits were purchased from Cisbio (Bedford, MA, USA).
Degradation of EGFR protein containing L858R mutation or wild-type was determined based on quantification of FRET signal using a Total EGFR (L858R-specific or pan-EGFR detecting) HTRF assay kit. Phospho-EGFR (pEGFR) inhibition was determined based on quantification of FRET signal using a pY1068 EGFR HTRF assay kit. In separate assay plates, test compounds were added to the 384-well plate from a top concentration of 10 μM with 11 points, half log titration in duplicates. […] FRET signal was acquired on EnVision™ Multilabel Reader (PerkinElmer, Santa Clara, CA, USA). […]

EGFR L858R-T790M = target: T2, EGFR L858R-T790M (Homo sapiens, UniProt P00533, L858R/T790M); assay: EGFR degradation, Total EGFR (L858R-specific) HTRF, NCI-H1975; format: cell-based; settings: 6 hours
T2 construct: NCI-H1975 (harboring EGFR heterozygous L858R-T790M mutations); host or cells: NCI-H1975
T2 sequence (P00533 25-1210 T790M/L858R): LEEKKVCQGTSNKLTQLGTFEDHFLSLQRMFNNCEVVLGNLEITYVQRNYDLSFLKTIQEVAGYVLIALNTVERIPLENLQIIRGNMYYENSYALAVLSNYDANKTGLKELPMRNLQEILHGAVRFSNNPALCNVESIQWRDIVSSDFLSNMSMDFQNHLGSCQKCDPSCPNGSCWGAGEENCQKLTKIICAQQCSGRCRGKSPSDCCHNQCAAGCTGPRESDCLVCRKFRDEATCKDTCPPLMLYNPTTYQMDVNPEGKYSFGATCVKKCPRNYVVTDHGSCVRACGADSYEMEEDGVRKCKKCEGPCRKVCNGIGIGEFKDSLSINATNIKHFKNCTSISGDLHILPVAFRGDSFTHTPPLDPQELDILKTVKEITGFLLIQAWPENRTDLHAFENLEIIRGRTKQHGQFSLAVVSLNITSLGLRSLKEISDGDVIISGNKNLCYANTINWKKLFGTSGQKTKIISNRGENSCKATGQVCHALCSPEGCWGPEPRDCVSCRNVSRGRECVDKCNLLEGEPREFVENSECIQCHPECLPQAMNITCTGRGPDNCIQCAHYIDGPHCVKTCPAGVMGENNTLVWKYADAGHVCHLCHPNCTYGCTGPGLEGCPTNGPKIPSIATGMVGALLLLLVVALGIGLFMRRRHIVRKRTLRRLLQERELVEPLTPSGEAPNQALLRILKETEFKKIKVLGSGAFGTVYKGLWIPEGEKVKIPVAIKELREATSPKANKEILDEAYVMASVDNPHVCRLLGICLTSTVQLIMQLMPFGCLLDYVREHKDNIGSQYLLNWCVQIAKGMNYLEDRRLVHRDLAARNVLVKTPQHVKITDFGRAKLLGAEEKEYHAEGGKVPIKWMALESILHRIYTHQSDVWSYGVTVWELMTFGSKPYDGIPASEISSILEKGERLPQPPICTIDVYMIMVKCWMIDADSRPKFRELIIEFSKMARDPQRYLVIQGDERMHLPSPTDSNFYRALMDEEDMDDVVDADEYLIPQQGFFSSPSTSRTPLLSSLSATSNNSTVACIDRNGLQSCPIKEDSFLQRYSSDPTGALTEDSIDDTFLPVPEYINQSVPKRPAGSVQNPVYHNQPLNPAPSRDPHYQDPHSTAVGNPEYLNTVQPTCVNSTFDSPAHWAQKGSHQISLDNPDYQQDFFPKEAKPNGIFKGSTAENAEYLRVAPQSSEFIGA
Outline: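 HTRF read-outs: pY1068 phospho-EGFR for IC50; total EGFR (pan-EGFR in A431, L858R-specific in mutant lines) for DC50. Compounds were titrated 11 points, half-log, from 10 μM in duplicate onto cells in 10% FBS RPMI, incubated 6 h at 37°C.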

[1] = tested on: intracranial NCI-H1975-luciferase expressing tumors; assay: NCI-H1975-luc intracranial tumor model (intracarotid artery injection): BLI, body weight, survival; format: in vivo, female BALB/c nude mice; settings: intracranial model with intracarotid implantation, oral dosing
Method: Female BALB/c nude mice were inoculated by intracarotid injection with NCI-H1975-luc cells (1×10^5 in 100 μL PBS) for tumor development. Tumor growth was monitored using imaging analysis. Tumor-bearing mice were weighed and injected intraperitoneally with luciferin at a dose of 150 mg/kg and anesthetized with a mixture gas of oxygen and isoflurane. 10 minutes post luciferin injection, mice were imaged using IVIS Lumina III machine and total bioluminescence signal (BLI, photons/s) was measured in a region of interest (ROI). BLI from ROI were quantified and used as an indicator of tumor burden. Twenty days post tumor cell inoculation mice were randomized into groups of 6 with a mean BLI of 1.08×10^6 photons/s. Compound 1 was dosed orally (PO) twice a day at 50 mg/kg and was formulated in 20% PEG400+80% (25% SBECD, “sulfobutylether-β-cyclodextrin”) in double distilled H2Om which was also used as the vehicle control. Body weight and MTV were measured on a 2× weekly schedule. Survival data was also measured and is represented as median survival time±SEM.

[2] = Tolerability / body weight change on oral dosing in tumor-bearing mice; format: in vivo
Method: (§2) Compound 1 was dosed at 20, 50, or 100 mg/kg/day and was formulated in PEG400 (20% v/v)+80% v/v SBECD (25% w/v) in ddH2O. […] Body weight and MTV were measured on a 2× weekly schedule. Statistical analysis was performed using a one-way ANOVA. Data are expressed as MTV±SEM.
as §2, with “1 and Compound 2 were” for “1 was”, “one-way ANOVA followed by Dunnett's multiple comparison test.” for “one-way ANOVA.”
2×10^5 luciferase-expressing NCI-H1975-luc tumor cells suspended in 2 μL RPMI-1640 media were injected into the right forebrain of female BALB/c nude mice. Tumor growth was monitored using imaging analysis. Mice were injected intraperitoneally with 15 mg/mL of D-luciferin and anesthetized with 1-2% isoflurane inhalation. 10 minutes post luciferin injection, mice were imaged using IVIS Lumina III (Perkin Elmer) and total bioluminescence signal (BLI, photons/s) was measured in a region of interest (ROI). BLI from ROI were quantified and used as an indicator of tumor burden. […] Body weight and MTV were measured on a 2× weekly schedule. Statistical analysis was calculated using the Mann-Whitney U test. Data are expressed as bioluminescent signal (photons/s). […]

[3] = target: T3, pY1068 EGFR L858R-T790M-C797S (Homo sapiens, UniProt P00533, C797S/L858R/T790M); assay: Phospho-EGFR (pY1068) inhibition HTRF, NCI-H1975+CS; format: cell-based; settings: 6 hours, read-out: pEGFR IC50
T3 construct: generated using CRISPR technology to introduce the additional C797S mutation by Horizon Discovery; host or cells: NCI-H1975+CS (CRISPR knock-in of C797S)
T3 sequence (P00533 25-1210 T790M/C797S/L858R): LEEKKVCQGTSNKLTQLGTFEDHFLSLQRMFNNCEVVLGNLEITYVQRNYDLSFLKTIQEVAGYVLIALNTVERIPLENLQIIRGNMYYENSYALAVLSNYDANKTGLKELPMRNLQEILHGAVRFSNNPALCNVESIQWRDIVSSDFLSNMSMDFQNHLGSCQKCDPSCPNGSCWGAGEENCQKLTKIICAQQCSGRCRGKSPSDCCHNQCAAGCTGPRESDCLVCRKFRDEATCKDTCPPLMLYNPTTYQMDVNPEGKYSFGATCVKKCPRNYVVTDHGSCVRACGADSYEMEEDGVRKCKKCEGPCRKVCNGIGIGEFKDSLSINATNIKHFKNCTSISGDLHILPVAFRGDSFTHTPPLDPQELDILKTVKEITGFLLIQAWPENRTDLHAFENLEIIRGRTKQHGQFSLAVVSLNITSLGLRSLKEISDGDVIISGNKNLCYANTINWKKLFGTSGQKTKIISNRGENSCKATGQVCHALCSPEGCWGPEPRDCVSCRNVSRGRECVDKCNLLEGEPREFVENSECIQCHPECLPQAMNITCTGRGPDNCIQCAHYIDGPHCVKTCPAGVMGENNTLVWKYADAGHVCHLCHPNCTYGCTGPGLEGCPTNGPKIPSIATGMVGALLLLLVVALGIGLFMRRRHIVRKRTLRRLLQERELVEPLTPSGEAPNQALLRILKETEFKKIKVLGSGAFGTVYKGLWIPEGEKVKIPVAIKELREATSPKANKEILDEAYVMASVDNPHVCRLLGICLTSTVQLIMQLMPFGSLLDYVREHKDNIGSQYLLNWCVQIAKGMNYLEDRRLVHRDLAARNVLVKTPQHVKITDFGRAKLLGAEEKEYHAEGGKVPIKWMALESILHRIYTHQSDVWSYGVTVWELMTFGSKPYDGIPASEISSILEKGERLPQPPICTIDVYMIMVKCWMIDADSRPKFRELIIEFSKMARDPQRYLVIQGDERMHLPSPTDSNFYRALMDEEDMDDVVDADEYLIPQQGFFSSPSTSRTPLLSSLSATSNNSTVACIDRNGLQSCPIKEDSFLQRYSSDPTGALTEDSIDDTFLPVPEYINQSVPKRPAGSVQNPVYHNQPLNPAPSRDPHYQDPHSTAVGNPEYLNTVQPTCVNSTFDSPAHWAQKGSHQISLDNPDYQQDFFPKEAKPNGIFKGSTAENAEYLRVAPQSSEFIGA
Description: as §1
Degradation of EGFR protein containing L858R mutation or wild-type was determined based on quantification of FRET signal using a Total EGFR (L858R-specific or pan-EGFR detecting) HTRF assay kit. Phospho-EGFR (pEGFR) inhibition was determined based on quantification of FRET signal using a pY1068 EGFR HTRF assay kit. In separate assay plates, test compounds were added to the 384-well plate from a top concentration of 10 μM with 11 points, half log titration in duplicates. For each assay, 12.5 uL of cells suspended in assay media (RPMI 1640 no-phenol red medium+10% FBS) at cell densities indicated for each cell line in Table 8 below were dispensed using a multi-channel pipette to 384-well low volume white HTRF microplates containing a duplicate concentration range of test compounds and DMSO controls. The plates were kept at 37° C. with 5% CO2 for 6 hours and then incubated with either phospho EGFR or Total EGFR HTRF detection antibodies according to the cell line and EGFR mutant being assayed. Cells treated in the absence of the test compound were the negative control. Positive control was set by wells containing all reagents but no cells. FRET signal was acquired on EnVision™ Multilabel Reader (PerkinElmer, Santa Clara, CA, USA). Compound concentration that achieves 50% degradation and inhibition was reported as DC50 and IC50, respectively.

[4] = H1975 (L858R-T790M), read-out: tEGFR DC50
[5] = Table 9A, NCI-H1975 cells, Total EGFR HTRF, read-out: H1975 EGFR DC50

T1 sequence (P00533 25-1210): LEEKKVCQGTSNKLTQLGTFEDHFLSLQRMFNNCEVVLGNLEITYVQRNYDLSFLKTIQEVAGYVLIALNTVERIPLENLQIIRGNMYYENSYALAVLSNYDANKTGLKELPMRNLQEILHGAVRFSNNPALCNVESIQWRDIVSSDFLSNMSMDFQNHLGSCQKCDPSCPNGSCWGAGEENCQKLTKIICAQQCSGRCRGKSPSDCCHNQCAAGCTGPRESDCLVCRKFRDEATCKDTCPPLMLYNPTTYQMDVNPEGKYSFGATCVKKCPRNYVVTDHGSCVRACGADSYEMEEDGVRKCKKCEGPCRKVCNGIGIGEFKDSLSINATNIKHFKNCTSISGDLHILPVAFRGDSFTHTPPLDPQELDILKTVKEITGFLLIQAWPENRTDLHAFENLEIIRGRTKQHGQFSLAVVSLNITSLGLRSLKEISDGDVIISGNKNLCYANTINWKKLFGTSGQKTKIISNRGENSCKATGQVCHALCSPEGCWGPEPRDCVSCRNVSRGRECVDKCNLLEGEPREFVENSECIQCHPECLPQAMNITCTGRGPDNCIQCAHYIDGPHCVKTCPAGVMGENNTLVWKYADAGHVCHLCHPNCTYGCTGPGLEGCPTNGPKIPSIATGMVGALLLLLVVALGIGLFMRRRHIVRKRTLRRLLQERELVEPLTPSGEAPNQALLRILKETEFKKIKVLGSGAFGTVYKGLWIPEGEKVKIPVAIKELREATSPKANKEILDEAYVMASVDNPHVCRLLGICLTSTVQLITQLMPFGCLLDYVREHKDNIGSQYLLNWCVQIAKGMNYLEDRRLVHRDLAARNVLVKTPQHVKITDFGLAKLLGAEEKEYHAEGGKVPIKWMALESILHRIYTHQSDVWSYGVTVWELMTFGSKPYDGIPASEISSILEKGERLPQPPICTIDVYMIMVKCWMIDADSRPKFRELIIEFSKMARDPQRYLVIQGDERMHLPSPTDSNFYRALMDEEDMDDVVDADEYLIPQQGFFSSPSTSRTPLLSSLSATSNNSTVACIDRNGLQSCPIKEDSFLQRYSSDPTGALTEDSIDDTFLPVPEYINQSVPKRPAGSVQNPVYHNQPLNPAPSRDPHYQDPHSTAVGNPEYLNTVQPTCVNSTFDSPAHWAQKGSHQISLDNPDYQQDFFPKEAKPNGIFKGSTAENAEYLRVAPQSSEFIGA

Structure (SMILES) | IC50 (pY1068 EGFR WT) | DC50 (EGFR L858R-T790M; [4]) | DC50 (EGFR L858R-T790M; [5]) | efficacy on NCI-H1975-luc BLI (tumor burden) [1] | tolerability of oral dosing [2] | IC50 [3]
O=C1CC[C@H](Nc2ccc(N3CCC(O)(CC(=O)N4CC5(C4)CN(c4ccc(-c6cc(F)c7c(c6)C(=O)N(C(C(=O)Nc6nccs6)c6ncn8c6CCC8)C7)cc4)C5)CC3)c(F)c2)C(=O)N1 (stereo partly drawn) [Compound 1, 2-(6,7-dihydro-5H-pyrrolo[1,2-c]imidazol-1-yl)-2-[6-[4-[2-[2-[1-[4-[[(3S)-2,6-dioxo-3-piperidyl]amino]-2-fluoro-phenyl]-4-hydroxy-4-piperidyl]acetyl]-2,6-diazaspiro[3.3]heptan-6-yl]phenyl]-4-fluoro-1-oxo-isoindolin-2-yl]-N-thiazol-2-yl-acetamide] | > 10000 nM | 8 nM | < 50 nM | tumor regression | well tolerated | 10 nM
Cn1nc(N2CCC(=O)NC2=O)c2ccc([C@H]3CCN(CC(=O)N4CC5(C4)CN(c4ccc(-c6cc(F)c7c(c6)C(=O)N(C(C(=O)Nc6nccs6)c6ncn8c6CCC8)C7)cc4)C5)CC3(F)F)cc21 (stereo partly drawn) [Compound 2, 2-(6,7-dihydro-5H-pyrrolo[1,2-c]imidazol-1-yl)-2-[6-[4-[2-[2-[(4R)-4-[3-(2,4-dioxohexahydropyrimidin-1-yl)-1-methyl-indazol-6-yl]-3,3-difluoro-1-piperidyl]acetyl]-2,6-diazaspiro[3.3]heptan-6-yl]phenyl]-4-fluoro-1-oxo-isoindolin-2-yl]-N-thiazol-2-yl-acetamide] | > 10000 nM | 12 nM | < 50 nM |  | well tolerated | 29 nM
